We go through 13 compounds from US20020183362A1, “2-Fluorobenzenesulfonyl compounds for the treatment of inflammation” (Pharmacia Corporation, priority 2000, published 2002).

SMILES strings stand for the structures.

The target of data set [1] is T1, Human COX-2 (Homo sapiens, UniProt P35354).
T1 construct: A 2.0 kb fragment containing the coding region of either human or murine COX-1 or human or murine COX-2; made in house; host or cells: SF9 insect cells (baculovirus, transfer vector pVL1393)
T1 sequence (P35354 18-604): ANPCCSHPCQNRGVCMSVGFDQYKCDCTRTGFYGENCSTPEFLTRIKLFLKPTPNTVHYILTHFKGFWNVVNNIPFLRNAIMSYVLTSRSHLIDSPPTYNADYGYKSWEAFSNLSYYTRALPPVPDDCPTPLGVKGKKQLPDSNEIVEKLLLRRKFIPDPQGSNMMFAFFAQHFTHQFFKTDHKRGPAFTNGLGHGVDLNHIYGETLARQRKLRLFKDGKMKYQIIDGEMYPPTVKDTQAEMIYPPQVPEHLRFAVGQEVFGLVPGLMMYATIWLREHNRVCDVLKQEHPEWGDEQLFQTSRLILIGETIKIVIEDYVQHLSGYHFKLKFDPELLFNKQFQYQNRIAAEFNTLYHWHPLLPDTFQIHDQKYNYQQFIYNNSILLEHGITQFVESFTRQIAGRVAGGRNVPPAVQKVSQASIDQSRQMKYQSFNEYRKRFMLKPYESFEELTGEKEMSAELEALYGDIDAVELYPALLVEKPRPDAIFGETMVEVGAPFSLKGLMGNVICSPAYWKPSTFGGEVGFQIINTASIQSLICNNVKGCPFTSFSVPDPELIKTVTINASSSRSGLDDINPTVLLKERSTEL
Briefly: Assay for COX-1 and COX-2 activity (PGE2 ELISA, recombinant enzyme), COX-2. Type of data set: biochemical. As to conditions: Table I; pre-incubated 10-20 minutes, arachidonic acid 10 μM, stopped after ten minutes, pH 8.0. Here is the method:
The COX-2 inhibition activity of the compounds of this invention illustrated in the Examples was determined by the following methods.
(§1) Recombinant COX-1 and COX-2 were prepared as described by Gierse et al, [J. Biochem., 305, 479-84 (1995)]. A 2.0 kb fragment containing the coding region of either human or murine COX-1 or human or murine COX-2 was cloned into a BamH1 site of the baculovirus transfer vector pVL1393 (Invitrogen) to generate the baculovirus transfer vectors for COX-1 and COX-2 in a manner similar to the method of D. R. O'Reilly et al (Baculovirus Expression Vectors: A Laboratory Manual (1992)). Recombinant baculoviruses were isolated by transfecting 4 μg of baculovirus transfer vector DNA into SF9 insect cells (2×10^8) along with 200 ng of linearized baculovirus plasmid DNA by the calcium phosphate method. See M. D. Summers and G. E. Smith, A Manual of Methods for Baculovirus Vectors and Insect Cell Culture Procedures, Texas Agric. Exp. Station Bull. 1555 (1987). Recombinant viruses were purified by three rounds of plaque purification and high titer (10^7-10^8 pfu/mL) stocks of virus were prepared. For large scale production, SF9 insect cells were infected in 10 liter fermentors (0.5×10^6/mL) with the recombinant baculovirus stock such that the multiplicity of infection was 0.1. After 72 hours the cells were centrifuged and the cell pellet homogenized in Tris/Sucrose (50 mM: 25%, pH 8.0) containing 1% 3-[(3-cholamidopropyl)dimethylammonio]-1-propanesulfonate (CHAPS). The homogenate was centrifuged at 10,000×G for 30 minutes, and the resultant supernatant was stored at −80° C. before being assayed for COX activity.
COX activity was assayed as PGE2 formed/μg protein/time using an ELISA to detect the prostaglandin released. CHAPS-solubilized insect cell membranes containing the appropriate COX enzyme were incubated in a potassium phosphate buffer (50 mM, pH 8.0) containing epinephrine, phenol, and heme with the addition of arachidonic acid (10 μM). Compounds were pre-incubated with the enzyme for 10-20 minutes prior to the addition of arachidonic acid. Any reaction between the arachidonic acid and the enzyme was stopped after ten minutes at 37° C./room temperature by transferring 40 μl of reaction mix into […] and 25 μM indomethacin. The PGE2 formed was measured by standard ELISA technology (Cayman Chemical).
(In general: ELISA stands for enzyme-linked immunosorbent assay.)

The target in data set [2] is T2, Human COX-1 (Homo sapiens, UniProt P23219).
T2 construct: A 2.0 kb fragment containing the coding region of either human or murine COX-1 or human or murine COX-2; made in house; host or cells: SF9 insect cells (baculovirus, transfer vector pVL1393)
T2 sequence (P23219 24-599): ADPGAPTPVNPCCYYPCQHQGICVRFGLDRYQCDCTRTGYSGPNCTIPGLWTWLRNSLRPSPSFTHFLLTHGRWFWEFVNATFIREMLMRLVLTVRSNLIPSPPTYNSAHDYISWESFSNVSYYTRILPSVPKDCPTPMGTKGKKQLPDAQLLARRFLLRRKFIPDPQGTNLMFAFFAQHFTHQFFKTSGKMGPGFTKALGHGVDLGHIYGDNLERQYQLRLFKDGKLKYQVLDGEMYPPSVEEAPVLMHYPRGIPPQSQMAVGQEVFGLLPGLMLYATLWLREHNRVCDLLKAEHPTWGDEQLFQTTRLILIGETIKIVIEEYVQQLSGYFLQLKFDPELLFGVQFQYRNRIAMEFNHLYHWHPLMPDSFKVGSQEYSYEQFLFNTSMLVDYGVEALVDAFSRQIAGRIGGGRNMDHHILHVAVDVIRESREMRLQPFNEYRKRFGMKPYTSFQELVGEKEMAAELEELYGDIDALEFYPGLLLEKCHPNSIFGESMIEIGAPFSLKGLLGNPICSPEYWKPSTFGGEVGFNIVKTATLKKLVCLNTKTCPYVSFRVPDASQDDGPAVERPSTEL
Description: Assay for COX-1 and COX-2 activity (PGE2 ELISA, recombinant enzyme), COX-1. Type of data set: biochemical. As to conditions: Table I; pre-incubated 10-20 minutes, arachidonic acid 10 μM, stopped after ten minutes, pH 8.0. Here is the method:
as §1, with “Recombinant” for “Recombinant COX-1 and COX-2 were prepared as described by Gierse et al, [J. Biochem., 305, 479-84 (1995)]. A 2.0 kb fragment containing the coding region of either human or murine COX-1 or human or murine COX-2 was cloned into a BamH1 site of the baculovirus transfer vector pVL1393 (Invitrogen) to generate the baculovirus transfer vectors for COX-1 and COX-2 in a manner similar to the method of D. R. O'Reilly et al (Baculovirus Expression Vectors: A Laboratory Manual (1992)). Recombinant”, “1555 (1987).” left out
COX activity was assayed as PGE2 formed/μg protein/time using an ELISA to detect the prostaglandin released. CHAPS-solubilized insect cell membranes containing the appropriate COX enzyme were incubated in a potassium phosphate buffer (50 mM, pH 8.0) containing epinephrine, phenol, and heme with the addition of arachidonic acid (10 μM). Compounds were pre-incubated with the enzyme for 10-20 minutes prior to the addition of arachidonic acid. […] The PGE2 formed was measured by standard ELISA technology (Cayman Chemical).

For data set [3], the target named is T1, Human COX-2. Description: Fast assay for COX-1 and COX-2 activity (PGE2 ELISA), COX-2. Type of data set: biochemical. Particulars: Table II, pre-incubated 10 minutes at 25° C., arachidonic acid 10 μM, stopped after two minutes, pH 7.5. The procedure:
as §1
COX activity was assayed as PGE2 formed/μg protein/time using an ELISA to detect the prostaglandin released. CHAPS-solubilized insect cell membranes containing the appropriate COX enzyme were incubated in a potassium phosphate buffer (0.05 M Potassium phosphate, pH 7.5, 2 μM phenol, 1 μM heme, 300 μM epinephrine) with the addition of 20 μl of 100 μM arachidonic acid (10 μM). Compounds were pre-incubated with the enzyme for 10 minutes at 25° C. prior to the addition of arachidonic acid. Any reaction between the arachidonic acid and the enzyme was stopped after two minutes at 37° C./room temperature by transferring 40 μl of reaction mix into 160 μl ELISA buffer and 25 μM indomethacin. The PGE2 formed was measured by standard ELISA technology (Cayman Chemical).

In data set [4] the target is T2, Human COX-1. Briefly: Fast assay for COX-1 and COX-2 activity (PGE2 ELISA), COX-1. Type of data set: biochemical. Particulars: Table II, pre-incubated 10 minutes at 25° C., arachidonic acid 10 μM, stopped after two minutes, pH 7.5. The procedure: as §1, with “Recombinant” for “Recombinant COX-1 and COX-2 were prepared as described by Gierse et al, [J. Biochem., 305, 479-84 (1995)]. A 2.0 kb fragment containing the coding region of either human or murine COX-1 or human or murine COX-2 was cloned into a BamH1 site of the baculovirus transfer vector pVL1393 (Invitrogen) to generate the baculovirus transfer vectors for COX-1 and COX-2 in a manner similar to the method of D. R. O'Reilly et al (Baculovirus Expression Vectors: A Laboratory Manual (1992)). Recombinant”, “1555 (1987).” left out
COX activity was assayed as PGE2 formed/μg protein/time using an ELISA to detect the prostaglandin released. CHAPS-solubilized insect cell membranes containing the appropriate COX enzyme were incubated in a potassium phosphate buffer (0.05 M Potassium phosphate, pH 7.5, 2 μM phenol, 1 μM heme, 300 μM epinephrine) with the addition of 20 μl of 100 μM arachidonic acid (10 μM). Compounds were pre-incubated with the enzyme for 10 minutes at 25° C. prior to the addition of arachidonic acid. […] The PGE2 formed was measured by standard ELISA technology (Cayman Chemical).

The IC50 is the concentration at which inhibition is half-maximal. For orientation: melting point means the temperature of the solid-liquid transition. Regarding `Cc1ccc(-c2cc(C(F)F)nn2-c2ccc(S(N)(=O)=O)c(F)c2)cc1Cl` [Example 3, 4-[5-(3-chloro-4-methylphenyl)-3-(difluoromethyl)-1H-pyrazol-1-yl]-2-fluorobenzenesulfonamide], the melting point lay within 160 to 161 °C. The IC50 on Human COX-2 [1] came out at 5 nM. Also, at Human COX-1 [2], the IC50 turned out to be 16300 nM. This compound also had an IC50 at Human COX-2 [3] of 4 nM. In addition, at Human COX-1 [4], the IC50 came out at 26900 nM.

`CS(=O)(=O)c1ccc(-c2cc(C(F)(F)F)nn2-c2ccc(F)cc2)cc1F` [Example 11, 5-[3-Fluoro-4-(methylsulfonyl)phenyl]-1-(4-fluorophenyl)-3-(trifluoromethyl)-1H-pyrazole] gave a melting point of 228 to 229 °C. In addition, on Human COX-2 [1], the IC50 was found to be 150 nM. Moreover, on Human COX-1 [2], the IC50 is greater than 100000 nM. In addition, it took 130 nM to reach half-maximal inhibition at Human COX-2 [3] (IC50). For the same compound, half-maximal inhibition against Human COX-1 [4] (IC50) required 22600 nM.

`CS(=O)(=O)c1ccc(-c2cc(C(F)(F)F)nn2-c2ccc(OC(F)(F)F)cc2)cc1F` [Example 14, 5-[3-Fluoro-4-(methylsulfonyl)phenyl]-3-(trifluoromethyl)-1-[4-(trifluoromethoxy)phenyl]-1H-pyrazole] registered a melting point of 110 to 112 °C. Further, the IC50 at Human COX-2 [1] worked out at 62 nM. The IC50 at Human COX-1 [2] is greater than 100000 nM. The compound also showed an IC50 on Human COX-2 [3] of 64 nM. Further, at Human COX-1 [4], the IC50 was greater than 100000 nM.

The compound `Cc1cccc(-n2nc(C(F)(F)F)cc2-c2ccc(S(C)(=O)=O)c(F)c2)c1` [Example 17, 5-[3-Fluoro-4-(methylsulfonyl)phenyl]-1-(3-methylphenyl)-3-(trifluoromethyl)-1H-pyrazole] returned a melting point of 129 to 130 °C. In addition, the IC50 on Human COX-2 [1] was 1050 nM. Further, at Human COX-1 [2], the IC50 is greater than 100000 nM. For the same compound, half-maximal inhibition at Human COX-2 [3] (IC50) was put at 27 nM. For the same compound, the IC50 at Human COX-1 [4] was 4360 nM.

The compound `CS(=O)(=O)c1ccc(-c2cc(C(F)(F)F)nn2-c2ccc(C#N)cc2)cc1F` [Example 16, 4-[5-[3-Fluoro-4-(methylsulfonyl)Phenyl]-3-(trifluoromethyl)-1H-Pyrazol-1-yl]benzonitrile] gave a melting point of 152 to 153 °C. At Human COX-2 [1], the half-inhibitory concentration (IC50) turned out to be 250 nM. Moreover, on Human COX-1 [2], the IC50 is greater than 100000 nM. The compound further displayed an IC50 against Human COX-2 [3] of 870 nM. On Human COX-1 [4], this compound yielded an IC50 greater than 100000 nM.

Regarding `COc1ccc(-c2cc(C(F)(F)F)nn2-c2ccc(S(N)(=O)=O)c(F)c2)cc1F` [Example 6, 4-[5-(3-Fluoro-4-methoxy)-3-trifluoromethyl-1H-pyrazol-1-yl]-2-fluorobenzenesulfonamide], the IC50 on Human COX-2 [1] was 25 nM; at Human COX-1 [2], 45600 nM; against Human COX-2 [3] it was 18 nM; at Human COX-1 [4], greater than 100000 nM.

For `CS(=O)(=O)c1ccc(-c2cc(C(F)(F)F)nn2C2CCCCC2)cc1F` [Example 12, 1-Cyclohexyl-5-[3-fluoro-4-(methylsulfonyl)phenyl]-3-(trifluoromethyl)-1H-pyrazole], the melting point was 228 to 229 °C. For the same compound, the IC50 on Human COX-2 [1] is 180 nM. The IC50 on Human COX-1 [2] was greater than 100000 nM. Also, on Human COX-2 [3], the IC50 worked out at 140 nM. The compound further came in with an IC50 against Human COX-1 [4] greater than 100000 nM.

In turn, `NS(=O)(=O)c1ccc(-c2cscc2-c2ccccc2)cc1F` [Example 1, 2-Fluoro-4-(4-phenyl-3-thienyl)benzenesulfonamide] gave a melting point of 170.9 to 171 °C. Moreover, the IC50 on Human COX-2 [1] was 11 nM. Besides, the IC50 at Human COX-1 [2] came to 37900 nM. This compound had an IC50 on Human COX-2 [3] of 13 nM. The compound also returned an IC50 on Human COX-1 [4] of 29400 nM.

Regarding `CS(=O)(=O)c1ccc(-c2cc(C(F)F)nn2-c2ccc(F)cc2)cc1F` [Example 18, 3-(Difluoromethyl)-5-[3-fluoro-4-(methylsulfonyl)phenyl]-1-(4-fluorophenyl)-1H-pyrazole], the IC50 at Human COX-2 [1] is 320 nM; on Human COX-1 [2] it was greater than 100000 nM; at Human COX-2 [3], 310 nM; against Human COX-1 [4], greater than 100000 nM.

Consider `CS(=O)(=O)c1ccc(-c2cc(C(F)F)nn2-c2cccc(C(F)(F)F)c2)cc1F` [Example 21], for which the IC50 was 550 nM on Human COX-2 [1], greater than 100000 nM at Human COX-1 [2], 290 nM against Human COX-2 [3] and greater than 100000 nM against Human COX-1 [4].

With `NS(=O)(=O)c1ccc(-n2nc(C(F)(F)F)cc2-c2ccc(F)cc2)cc1F` [Example 8, 2-Fluoro-4-[5-(4-fluorophenyl)-3-(trifluoromethyl)-1H-pyrazol-1-yl]benzenesulfonamide], the IC50 turned out to be 20 nM on Human COX-2 [1], 56800 nM at Human COX-1 [2], 21 nM at Human COX-2 [3] and 41500 nM against Human COX-1 [4].

With `Cc1ccc(-n2nc(C(F)F)cc2-c2ccc(S(C)(=O)=O)c(F)c2)cc1Cl` [Example 20, 1-(3-Chloro-4-methylphenyl)-3-(difluoromethyl)-5-[3-fluoro-4-(methylsulfonyl)phenyl]-1H-pyrazole], the IC50 at Human COX-2 [1] was 36 nM; at Human COX-1 [2], greater than 100000 nM; against Human COX-2 [3], 53 nM; against Human COX-1 [4] it was greater than 100000 nM.

Take `NS(=O)(=O)c1ccc(-n2nc(C(F)(F)F)cc2-c2ccc(Cl)cc2)cc1F` [Example 5, 4-[5-(4-Chlorophenyl)-3-trifluoromethyl-1H-pyrazol-1-yl]-2-fluorobenzenesulfonamide]: the IC50 on Human COX-2 [1] turned out to be 5 nM; at Human COX-1 [2], 45900 nM; on Human COX-2 [3] it was 4 nM; against Human COX-1 [4], 19900 nM.
